Results taken from patent US12077503B2, “Substituted cyclic amides and their use as herbicides” (FMC CORPORATION, priority 2015, dated 2024).

Tests used:
Format in all cases: in vivo
Kochia (Kochia scoparia) [1] = test: Test A preemergence; details: Bassia scoparia, pre-emergence, 240 h, preemergence, 0 to 100 scale where 0 is no effect and 100 is complete control, read-out: Kochia plant response rating
Summary of the method: (§1)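 Seeded soil received test chemicals as a preemergence directed spray, and seedlings at one to two leaves, 2–10 cm tall, received them postemergence, in a non-phytotoxic, surfactant-containing solvent mixture. Pots were held in a greenhouse for approximately 10 d, then rated for injury from 0, no effect, to 100, complete control.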

[2] = test system: barnyardgrass (Echinochloa crus-galli); test: Test A preemergence; details: Echinochloa crus-galli, pre-emergence, 240 h, preemergence, 0 to 100 scale where 0 is no effect and 100 is complete control, read-out: Barnyardgrass plant response rating
Summary of the method: as §1

[3] = test system: giant foxtail (Setaria faberii); test: Test A preemergence; details: Setaria faberi, pre-emergence, 240 h, preemergence, 0 to 100 scale where 0 is no effect and 100 is complete control, read-out: Foxtail, Giant plant response rating
Summary of the method: as §1

[4] = test system: pigweed (Amaranthus retroflexus); test: Test A preemergence; details: Amaranthus retroflexus, pre-emergence, 240 h, preemergence, 0 to 100 scale where 0 is no effect and 100 is complete control, read-out: Pigweed plant response rating
[5] = test system: ragweed (common ragweed, Ambrosia elatior); test: Test A preemergence; details: Ambrosia artemisiifolia, pre-emergence, 240 h, preemergence, 0 to 100 scale where 0 is no effect and 100 is complete control, read-out: Ragweed plant response rating
Summary of the method: as §1

[6] = test system: ryegrass, Italian (Italian ryegrass, Lolium multiflorum); test: Test A preemergence; details: Lolium multiflorum, pre-emergence, 240 h, preemergence, 0 to 100 scale where 0 is no effect and 100 is complete control, read-out: Ryegrass, Italian plant response rating
Summary of the method: as §1

[7] = test system: Galium (catchweed bedstraw, Galium aparine); test: Test A postemergence; details: Galium, post-emergence, 240 h, postemergence
Summary of the method: as §1

Kochia (Kochia scoparia) [8] = test: Test A postemergence; details: Bassia scoparia, post-emergence, 240 h, postemergence
Summary of the method: as §1

[9] = test system: barnyardgrass (Echinochloa crus-galli); test: Test A postemergence; details: Echinochloa crus-galli, post-emergence, 240 h, postemergence
Summary of the method: as §1

[10] = test system: blackgrass (Alopecurus myosuroides); test: Test A postemergence; details: Alopecurus myosuroides, post-emergence, 240 h, postemergence
Summary of the method: as §1

corn (Zea mays) = test: Test A postemergence; details: Zea mays, post-emergence, 240 h, postemergence
Summary of the method: as §1

[11] = test system: giant foxtail (Setaria faberii); test: Test A postemergence; details: Setaria faberi, post-emergence, 240 h, postemergence
Summary of the method: as §1

[12] = test system: pigweed (Amaranthus retroflexus); test: Test A postemergence; details: Amaranthus retroflexus, post-emergence, 240 h, postemergence
Summary of the method: as §1

[13] = test system: ragweed (common ragweed, Ambrosia elatior); test: Test A postemergence; details: Ambrosia artemisiifolia, post-emergence, 240 h, postemergence
Summary of the method: as §1

[14] = test system: ryegrass, Italian (Italian ryegrass, Lolium multiflorum); test: Test A postemergence; details: Lolium multiflorum, post-emergence, 240 h, postemergence
Summary of the method: as §1

[15] = test system: wheat (Triticum aestivum); test: Test A postemergence; details: Triticum aestivum, post-emergence, 240 h, 125 g ai/ha, postemergence, visual injury vs untreated controls after approx. 10 d; 0 = no effect, 100 = complete control; read-out: Wheat plant response rating (0 to 100 scale)
Summary of the method: as §1

[16] = 125 g ai/ha, visual injury rating, approximately 10 d

Cc1c(F)cccc1NC(=O)[C@H]1C(=O)N(C)C[C@@H]1c1ccc(F)cc1 [Compound 1235]
pest or weed control at 125 g/ha (Kochia (Kochia scoparia) [1]; [16]): 60% | pest or weed control at 500 g/ha (Kochia (Kochia scoparia) [1]; 500 g ai/ha): 80% | pest or weed control at 125 g/ha [2, 16]: 100% | pest or weed control at 500 g/ha ([2]; 500 g ai/ha): 100% | pest or weed control at 125 g/ha [3, 16]: 100% | pest or weed control at 500 g/ha ([3]; 500 g ai/ha): 100% | pest or weed control at 125 g/ha [4, 16]: 30% | pest or weed control at 500 g/ha ([4]; 500 g ai/ha): 90% | pest or weed control at 125 g/ha [5, 16]: 70% | pest or weed control at 500 g/ha ([5]; 500 g ai/ha): 90% | pest or weed control at 125 g/ha [6, 16]: 50% | pest or weed control at 500 g/ha ([6]; 500 g ai/ha): 60% | pest or weed control at 125 g/ha ([7]; 125 g ai/ha, visual injury vs untreated controls after approx. 10 d, 0 = no effect, 100 = complete control, read-out: Galium plant response rating (0 to 100 scale)): 50% | pest or weed control at 500 g/ha ([7]; 500 g ai/ha, 0 to 100 scale, 0 is no effect, 100 is complete control, read-out: Galium plant response rating): 70% | pest or weed control at 125 g/ha (Kochia (Kochia scoparia) [8]; 125 g ai/ha, visual injury vs untreated controls after approx. 10 d, 0 = no effect, 100 = complete control, read-out: Kochia plant response rating (0 to 100 scale)): 30% | pest or weed control at 500 g/ha (Kochia (Kochia scoparia) [8]; 500 g ai/ha, 0 to 100 scale, 0 is no effect, 100 is complete control, read-out: Kochia plant response rating): 50% | pest or weed control at 125 g/ha ([9]; 125 g ai/ha, visual injury vs untreated controls after approx. 10 d, 0 = no effect, 100 = complete control, read-out: Barnyardgrass plant response rating (0 to 100 scale)): 90% | pest or weed control at 500 g/ha ([9]; 500 g ai/ha, 0 to 100 scale, 0 is no effect, 100 is complete control, read-out: Barnyardgrass plant response rating): 100% | pest or weed control at 125 g/ha ([10]; 125 g ai/ha, visual injury vs untreated controls after approx. 10 d, 0 = no effect, 100 = complete control, read-out: Blackgrass plant response rating (0 to 100 scale)): 30% | pest or weed control at 500 g/ha ([10]; 500 g ai/ha, 0 to 100 scale, 0 is no effect, 100 is complete control, read-out: Blackgrass plant response rating): 40% | plant injury at 125 g/ha (corn (Zea mays); 125 g ai/ha, visual injury vs untreated controls after approx. 10 d, 0 = no effect, 100 = complete control, read-out: Corn plant response rating (0 to 100 scale)): 70% | plant injury at 500 g/ha (corn (Zea mays); 500 g ai/ha, 0 to 100 scale, 0 is no effect, 100 is complete control, read-out: Corn plant response rating): 100% | pest or weed control at 125 g/ha ([11]; 125 g ai/ha, visual injury vs untreated controls after approx. 10 d, 0 = no effect, 100 = complete control, read-out: Foxtail, Giant plant response rating (0 to 100 scale)): 80% | pest or weed control at 500 g/ha ([11]; 500 g ai/ha, 0 to 100 scale, 0 is no effect, 100 is complete control, read-out: Foxtail, Giant plant response rating): 90% | pest or weed control at 125 g/ha ([12]; 125 g ai/ha, visual injury vs untreated controls after approx. 10 d, 0 = no effect, 100 = complete control, read-out: Pigweed plant response rating (0 to 100 scale)): 0% | pest or weed control at 500 g/ha ([12]; 500 g ai/ha, 0 to 100 scale, 0 is no effect, 100 is complete control, read-out: Pigweed plant response rating): 50% | pest or weed control at 125 g/ha ([13]; 125 g ai/ha, visual injury vs untreated controls after approx. 10 d, 0 = no effect, 100 = complete control, read-out: Ragweed plant response rating (0 to 100 scale)): 0% | pest or weed control at 500 g/ha ([13]; 500 g ai/ha, 0 to 100 scale, 0 is no effect, 100 is complete control, read-out: Ragweed plant response rating): 30% | pest or weed control at 125 g/ha ([14]; 125 g ai/ha, visual injury vs untreated controls after approx. 10 d, 0 = no effect, 100 = complete control, read-out: Ryegrass, Italian plant response rating (0 to 100 scale)): 0% | pest or weed control at 500 g/ha ([14]; 500 g ai/ha, 0 to 100 scale, 0 is no effect, 100 is complete control, read-out: Ryegrass, Italian plant response rating): 30% | plant injury at 125 g/ha [15]: 40%
